In experiment [1] the test system is human peripheral blood mononuclear cells (PBMC). In words: IFNγ ELISPOT of human PBMC with epitope peptides. The format is cell-based. The note with it: CD105 and HIF1α peptides. An excerpt: (§1) A plurality of immunological assays may be used with the methods or processes described herein to test at least one peptides of putative epitopes or nucleic acids encoding peptides of putative epitopes to determine if the peptide of the putative epitope elicits an immune response, often the sub-type of the immune response may be determined, often the immunologic assay may be an ELISPOT assay, an ELISA assay, a multiplex assay or the like. For example, a suitable immunologic assay may include performing an ELISPOT assay using cells derived from donors. The ELISPOT assay may include isolating peripheral blood mononuclear cells (PBMC) from at least 10, preferably at least 40, subjects, often the subjects are human donors. The amount of at least one cytokine production in cells following administration of the peptides of putative epitopes may be determined by the ELISPOT assay. The at least one cytokine may be IFNγ and/or IL-10 such that data indicating cytokine production may represent a positive or a negative response of cells to the peptide sequence of the putative epitope. In some cases, positive responses may have a statistically significant difference (p<0.05) between a mean number of spots from five replicates in the experimental wells and the mean number from no antigen control wells. In other cases, negative responses may not have a statistically significant difference (p<0.05) between a mean number of spots from five replicates in the experimental wells and the mean number from no antigen control wells.
(§2) This example describes the identification of unique and discrete amino acid sequences of antigenic epitopes from breast cancer stem cell and epithelial mesenchymal transformation peptides CD105 and HIF-1a, both of which are promiscuous MHC class II binders and unexpectedly stimulate high (magnitude and incidence) interferon gamma (IFNγ) and low or no interleukin (IL)-10 responses from human peripheral blood mononuclear cells (PBMC). CD105 and HIF1α have been juxtaposed to allow construction of extended epitope sequences for inclusion in either a peptide or DNA plasmid-based multi-antigen polyepitope CD4+ T-cell vaccine targeting breast cancer stem cell and epithelial mesenchymal transformation antigens in cancer patients.
(§3) […] peptides, predicted to bind promiscuously to human MHCII, were selected using web-based algorithms according to the methods described herein. Peripheral blood mononuclear cells (PBMC) from 20 female breast cancer patients were cryopreserved and evaluated by ELISPOT for antigen specific IFNγ or IL-10 secretion, according to our published methods. […] Data is reported as the mean number of spots for each experimental antigen minus the mean number of spots detected in no antigen control wells (corrected spots per well: CSPW). Positive responses were defined by a statistically significant difference (p<0.05) between the mean number of spots from five replicates in the experimental wells and the mean number from no antigen control wells for an individual (see FIG. 15).
(§4) The unpaired, two-tailed Student's t-test, Fischer's exact test or X^2 test was used to evaluate differences between groups. […] All statistical analyses were performed using GraphPad Prism 5.04 (e.g., GraphPad Software).

The test system is the same in experiment [2]. In words: IL-10 ELISPOT of human PBMC with epitope peptides. Format: cell-based. The settings on record: CD105 and HIF1α peptides.
Text: as §1, §2, §3, §4

Consider YELAHQLPLPHNVSSH [HIF1α p38-53], for which the IFNγ response entry in experiment [1] is “strong”. Also, in experiment [2], the IL-10 response result is recorded as “no or low”.

With “GHKEAHILRVLPGHSAGPRTVTV [CD105 p214-236]”, the IFNγ response result in experiment [1] is recorded as “strong”. For the same substance, the IL-10 response entry in experiment [2] was “low or no”.

As to “CD105 p626-642: peptide at the C-terminus of CD105 (VVAVAAPASSESSSTNH; UniProt P17813 626-642, looked up, fragment)”, in experiment [1], the IFNγ response entry was “strong”. Also, in experiment [2], the IL-10 response entry is “low or no”.

Regarding LHLAYNSSLVTFQEP [CD105 p116-130], the IFNγ response result in experiment [1] is on record as “strong”. In experiment [2], the IL-10 response entry is on record as “low or no”.

In the case of VLLVLSVNSSVFLHLQALGI [CD105 p 96-114], the IFNγ response entry in experiment [1] is “strong”. Further, the IL-10 response result in experiment [2] is listed as “low or no”.

Turning to MRLTISYLRVRKLLDAGDLDIED [HIF1α p60-82], in experiment [1], the IFNγ response entry is “strong”. Further, the IL-10 response result in experiment [2] is listed as “no or low”.

Values taken from patent publication US20170266269A1, “METHODS OF IDENTIFYING ANTIGENS FOR VACCINES” (UNIVERSITY OF WASHINGTON THROUGH ITS CENTER FOR …, priority 2014, published 2017).
